5 molecules from BindingDB's records for PubMed 35239336 (Pharmaron Beijing Co., Ltd., 2022) can be followed below.

A short description of this data set: Inhibition of MK-499 binding to hERG.
The molecule `O=C(Nc1ccc(F)cc1)C1(c2ccc(-c3ccc(C4CC4)nc3)cc2)COC1` registered an IC50 of 13.5 µM.

In the case of `O=C(Nc1ccc(F)cc1)C1(c2ccc(-c3cnc(C(F)(F)F)cc3CO)cc2)CC(F)(F)C1`, the IC50 is 6.1 µM. Against the preceding molecule, the IC50 is about 2.2-fold lower.

In turn, `Cc1cc(C(F)(F)F)ncc1-c1ccc(C2(C(=O)Nc3ccc(F)cc3)COC2)cc1` showed a 50% inhibitory concentration (IC50) of 2.23 µM.

`Cc1cc(C2CC2)ncc1-c1ccc(C2(C(=O)Nc3ccc(F)cc3)COC2)cc1` yielded an IC50 of 15.9 µM.

`CC(C)(O)c1cc(C(F)(F)F)ncc1-c1ccc(C2(C(=O)Nc3ccc(F)cc3)COC2)cc1` had an IC50 of 21.3 µM.
